Results published in US6291676A, “Water-soluble derivatives of camptothecin/homocamptothecin” (priority 2000, dated 2001).

Test: Fluorescence anisotropy titration: association with electroneutral DMPC vesicles
Assay type: physicochemical
Method: Vesicle Preparation. Small unilamellar vesicle (SUV) suspensions were prepared the day of an experiment by the method of Burke et al. (T. G. Burke, A. K. Mishra, M. C. Wani, and M. E. Wall, Lipid Bilayer Partitioning and Stability of Camptothecin Drugs, Biochem., 32(20), 5352 (1993)). Briefly, stock lipid suspensions containing 200 mg/mL lipid in phosphate buffered saline (PBS, pH 7.4) were prepared by Vortex mixing for 5-10 min above the TM of the lipid. The lipid dispersions were then sonicated using a bath-type sonicator (Laboratory Supplies Co., Hicksville, N.Y.) for 3-4 h until they became optically clear. […] Each type of vesicle suspension was annealed for 30 min at 37° C. and then used in an experiment.
Fluorescence Instrumentation. Steady-state fluorescence measurements were obtained on a SLM Model 9850 spectrofluorometer with a thermostated cuvette compartment. This instrument was interfaced with an IBM PS/2 model 55 SX computer. Excitation and emission spectra were recorded with an excitation resolution of 8 nm and an emission resolution of 4 nm. In all cases spectra were corrected for background fluorescence and scatter from unlabeled lipids or from solvents by subtraction of the spectrum of a blank. Steady-state fluorescence intensity measurements were made in the absence of polarizers. Steady-state anisotropy (a) measurements were determined with the instrument in the "T-format" for simultaneous measurement of two polarized intensities. […] The anisotropy was calculated from a =(IVV -GIVH)/(IVV +2GIVH), where G=IHV /IHH and the subscripts refer to vertical and horizontal orientations of the excitation and emission polarizers, respectively.
Anisotropy measurements for camptothecins were conducted using exciting light in the range of 370 nm to 400 nm and long pass filters on each emission channel in order to isolate the drug's fluorescence signal from background scatter and/or residual fluorescence. […] The combination of exciting light and emission filters allowed us to adequately separate fluorescence from background signal. […]

CC[C@@]1(O)C(=O)OCc2c1cc1n(c2=O)Cc2c-1nc1ccccc1c2CNN1CCN(C)CC1 [CT-17, 7-[N-(4-methyl-1-piperazino)aminomethyl]-(20S)-camptothecin]
Overall association constant KDMPC (PBS buffer, pH 7.4, physiological temperature, DMPC): 30 M⁻¹ | reduction in membrane binding relative to 7AEC (DMPC) (electroneutral DMPC membranes): greater than 2 fold
